In patent publication US20080234266A1, “Squaric Acid Derivatives II” (priority 2005, published 2008):

Biological target: T1, CHK1 kinase (Homo sapiens, UniProt O14757)
T1 construct: glutathione S-transferase (GST); made in house; host or cells: Sf21 insect cells (S. frugiperda), baculovirus
T1 sequence (O14757 1-476): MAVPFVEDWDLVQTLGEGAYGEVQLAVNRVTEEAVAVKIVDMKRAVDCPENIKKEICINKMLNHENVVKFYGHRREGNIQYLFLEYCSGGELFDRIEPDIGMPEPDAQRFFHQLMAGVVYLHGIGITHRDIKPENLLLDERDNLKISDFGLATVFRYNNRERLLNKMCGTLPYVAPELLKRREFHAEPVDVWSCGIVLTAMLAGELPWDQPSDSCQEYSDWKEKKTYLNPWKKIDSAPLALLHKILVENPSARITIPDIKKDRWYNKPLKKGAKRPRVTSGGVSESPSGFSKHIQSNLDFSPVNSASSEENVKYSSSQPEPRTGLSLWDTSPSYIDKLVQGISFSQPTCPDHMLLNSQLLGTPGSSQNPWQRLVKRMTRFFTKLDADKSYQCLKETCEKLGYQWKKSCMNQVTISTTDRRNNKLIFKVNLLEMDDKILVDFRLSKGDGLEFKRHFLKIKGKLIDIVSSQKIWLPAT
Experiment: Flashplate method (CHK1), measurement of the CHK1 kinase activity
Format: biochemical
Details: class symbols; 'Affinity to receptors'
Procedure: CHK1 kinase is expressed for the purposes of protein production in insect cells (Sf21; S. frugiperda) and subsequent purification by affinity chromatography as fusion protein with glutathione S-transferase in a baculovirus expression vector. The cultivation, infection and digestion of the cells as well as the purification of the fusion protein by column chromatography are carried out in accordance with manufacturer-oriented generic working instructions.
The kinase activity is measured using various available measurement systems. In the scintillation proximity method (Sorg et al., J. of. Biomolecular Screening, 2002, 7, 11-19), the flashplate method or the filter binding test, the radioactive phosphorylation of a protein or peptide as substrate is measured using radioactively labelled ATP (γ^32P-ATP, (γ^33P-ATP). In the case of the presence of an inhibitory compound, a reduced radioactive signal, or none at all, can be detected. Furthermore, homogeneous time-resolved fluorescence resonance energy transfer (HTR-FRET) and fluorescence polarisation (FP) technologies are useful as assay methods (Sills et al., J. of Biomolecular Screening, 2002, 191-214).
The test plates used are 384-well streptavidin-coated Flashplates Plus® from Perkin Elmer (Cat.No. SMP410A001PK). The assay plate is equilibrated with 75 μl of assay buffer per well 30 min before commencement of the experiment. The buffer is sucked out before commencement of the experiment, and the components of the kinase reaction described below are pipetted onto the plate.
CHK1 kinase, a biotinylated substrate peptide (for example CHKtide: […]), is incubated with radioactively labelled ATP in the presence and absence of test substances at 30° Celsius and a total volume of 50 μl. The reaction is terminated using 25 μl of a 0.2 M EDTA solution. After incubation for 30 min at room temperature, the supernatants are filtered off with suction, and the wells are washed three times with 100 μl of 0.9% NaCl solution each time. The measurement of the bound radioactivity is carried out by means of a scintillation measuring instrument (Topcount NXT, Perkin-Elmer).
The full value used is the inhibitor-free kinase reaction. This should be approximately in the range 3000-4000 cpm. The pharmacological zero value used is staurosporin in a final concentration of 0.1 μM. The inhibitory values (IC50) are determined using the program RS1_MTS ( ).
Kinase reaction conditions per well:
0.15 μg of CHKtide ([…])
50 μl total volume (1-fold assay buffer reaction conditions)
Solutions used: • assay buffer:
0.1 mM Titriplex VI (EGTA
10 mM magnesium acetate 0.1% mercaptoethanol
pH=7.5 (to be set using hydrochloric acid) Bovine serum albumin (final concentration 0.1%) is not added until just before use. • stop solution:
0.2 M TitriplexIII (EDTA)
• γ^33P-ATP (Perkin-Elmer) • CHK1 kinase preparations: specific activity>50 U/mg • CHKtide solution: biotinylated peptide substrate (Biotrend) stored as stock solution (concentration 0.15 mg/ml).

IC50 | SMILES
> 1000 nM | CNS(=O)(=O)c1cccc(CNc2c(Nc3ccc4[nH]cnc4c3)c(=O)c2=O)c1 [Compound A44, 3-(1H-benzimidazol-5-ylamino)-4-[3-(methyl-aminosulfonyl)benzylamino]cyclobut-3-ene-1,2-dione]
> 1000 nM | CC(=O)Nc1cccc(CNc2c(Nc3ccc4[nH]cnc4c3)c(=O)c2=O)c1 [Compound A45, 3-(1H-benzimidazol-5-ylamino)-4-(3-acetamidobenzylamino)cyclobut-3-ene-1,2-dione]
> 1000 nM | CCn1c2ccccc2c2cc(Nc3c(NCc4cccc(O)c4)c(=O)c3=O)ccc21 [Compound A47, 3-(9-ethyl-9H-carbazol-3-ylamino)-4-(3-hydroxybenzylamino)cyclobut-3-ene-1,2-dione]
< 1000 nM | O=c1c(NCc2cccc(O)c2)c(Nc2ccc3nccn3c2)c1=O [Compound A49, 3-(imidazo[1,2-a]pyridin-6-ylamino)-4-(3-hydroxybenzylamino)cyclobut-3-ene-1,2-dione]
> 1000 nM | Cn1cnc2cc(Nc3c(NCc4cccc(O)c4)c(=O)c3=O)ccc21 [Compound A50, 3-(1-methyl-1H-benzimidazol-5-ylamino)-4-(3-hydroxybenzylamino)cyclobut-3-ene-1,2-dione]
< 1000 nM | Cn1cnc2ccc(Nc3c(NCc4cccc(O)c4)c(=O)c3=O)cc21 [Compound A52, 3-(3-hydroxybenzylamino)-4-(3-methyl-3H-benzimidazol-5-ylamino)cyclobut-3-ene-1,2-dione]
> 1000 nM | Cc1cc2nccn2cc1Nc1c(NCc2cccc(O)c2)c(=O)c1=O [Compound A54, 3-(3-hydroxybenzylamino)-4-(7-methyl-imidazo[1,2-a]pyridin-6-ylamino)cyclobut-3-ene-1,2-dione]
> 1000 nM | Cc1cc(Nc2c(NCc3cccc(O)c3)c(=O)c2=O)cn2ccnc12 [Compound A55, 3-(3-hydroxybenzylamino)-4-(8-methyl-imidazo[1,2-a]pyridin-6-ylamino)cyclobut-3-ene-1,2-dione]
> 1000 nM | COc1cc(CNc2c(Nc3ccc4[nH]cnc4c3)c(=O)c2=O)ccc1F [Compound A76, 3-(1H-benzimidazol-5-ylamino)-4-(4-fluoro-3-methoxybenzylamino)cyclobut-3-ene-1,2-dione]
> 1000 nM | CS(=O)(=O)Nc1cccc(CNc2c(Nc3ccc4[nH]cnc4c3)c(=O)c2=O)c1 [Compound A77, 3-(1H-benzimidazol-5-ylamino)-4-(3-methyl-sulfonylaminobenzylamino)cyclobut-3-ene-1,2-dione]
> 1000 nM | CCOC(=O)c1cc2cc(Nc3c(NCc4cccc(O)c4)c(=O)c3=O)ccc2[nH]1 [Compound A81, 3-(2-ethoxycarbonyl-1H-indol-5-ylamino)-4-(3-hydroxybenzylamino)cyclobut-3-ene-1,2-dione]

Further lines, the compound ahead of its results:

SMILES | IC50
O=c1c(NCc2ccc(F)c(F)c2)c(Nc2ccc3[nH]cnc3c2)c1=O [Compound A43, 3-(1H-benzimidazol-5-ylamino)-4-(3,4-di-fluorobenzylamino)cyclobut-3-ene-1,2-dione] | > 1000 nM
COc1cccc([C@H](C)Nc2c(Nc3ccc4c(c3)ncn4C)c(=O)c2=O)c1 [Compound A51, 3-[(S)-1-(3-methoxyphenyl)ethylamino]-4-(1-methyl-1H-benzimidazol-5-ylamino)cyclobut-3-ene-1,2-dione] | > 1000 nM
COc1cccc([C@@H](C)Nc2c(Nc3ccc4ncn(C)c4c3)c(=O)c2=O)c1 [Compound A53, 3-[(R)-1-(3-methoxyphenyl)ethylamino]-4-(3-methyl-3H-benzimidazol-5-ylamino)cyclobut-3-ene-1,2-dione] | < 1000 nM
CCN(CC)CCn1cnc2ccc(Nc3c(N[C@H](C)c4cccc(OC)c4)c(=O)c3=O)cc21 [Compound A65, 3-[3-(2-diethylaminoethyl)-3H-benzimidazol-5-ylamino]-4-[(R)-1-(3-methoxyphenyl)ethyl-amino]cyclobut-3-ene-1,2-dione] | > 1000 nM
CCN(CC)CCn1cnc2ccc(Nc3c(N[C@H](C)c4cccc(O)c4)c(=O)c3=O)cc21 [Compound A66, 3-[3-(2-diethylaminoethyl)-3H-benzimidazol-5-ylamino]-4-[(R)-1-(3-hydroxyphenyl)ethyl-amino]cyclobut-3-ene-1,2-dione] | > 1000 nM
COCCn1cnc2ccc(Nc3c(N[C@H](C)c4cccc(O)c4)c(=O)c3=O)cc21 [Compound A68, 3-[3-(2-methoxyethyl)-3H-benzimidazol-5-ylamino]-4-[(R)-1-(3-hydroxyphenyl)ethyl-amino]cyclobut-3-ene-1,2-dione] | < 1000 nM
COCCn1cnc2ccc(Nc3c(NCc4cccc(-c5nnn[nH]5)c4)c(=O)c3=O)cc21 [Compound A69, 3-[3-(2-methoxyethyl)-3H-benzimidazol-5-ylamino]-4-[3-(1H-tetrazol-5-yl)benzylamino]-cyclobut-3-ene-1,2-dione] | > 1000 nM
COCCn1cnc2ccc(Nc3c(NCc4cccc(S(N)(=O)=O)c4)c(=O)c3=O)cc21 [Compound A70, 3-[3-(2-methoxyethyl)-3H-benzimidazol-5-ylamino]-4-(3-aminosulfonylbenzylamino)-cyclobut-3-ene-1,2-dione] | > 1000 nM
CCN(CC)CCn1cnc2ccc(Nc3c(NCc4cccc(S(N)(=O)=O)c4)c(=O)c3=O)cc21 [Compound A71, 3-[3-(2-diethylaminoethyl)-3H-benzimidazol-5-ylamino]-4-(3-aminosulfonylbenzylamino)-cyclobut-3-ene-1,2-dione] | > 1000 nM
COCCn1cnc2cc(Nc3c(N[C@H](C)c4cccc(OC)c4)c(=O)c3=O)ccc21 [Compound A72, 3-[1-(2-methoxyethyl)-1H-benzimidazol-5-ylamino]-4-[(R)-1-(3-methoxyphenyl)ethyl-amino]cyclobut-3-ene-1,2-dione] | > 1000 nM
CCN(CC)CCn1cnc2cc(Nc3c(N[C@H](C)c4cccc(O)c4)c(=O)c3=O)ccc21 [Compound A73, 3-[1-(2-diethylaminoethyl)-1H-benzimidazol-5-ylamino]-4-[(R)-1-(3-hydroxyphenyl)ethyl-amino]cyclobut-3-ene-1,2-dione] | > 1000 nM
COCCn1cnc2cc(Nc3c(N[C@H](C)c4cccc(O)c4)c(=O)c3=O)ccc21 [Compound A74, 3-[(R)-1-(3-hydroxyphenyl)ethylamino]-4-[1-(2-methoxyethyl)-1H-benzimidazol-5-yl-amino]cyclobut-3-ene-1,2-dione] | > 1000 nM
CC(Nc1c(Nc2ccc3[nH]cnc3c2)c(=O)c1=O)c1ccc2[nH]ccc2c1 (stereo not drawn) [Compound A75, 3-(1H-benzimidazol-5-ylamino)-4-[1-(1H-indol-5-yl)ethylamino]cyclobut-3-ene-1,2-dione] | > 1000 nM
O=c1c(NCc2cc(F)c(F)c(O)c2F)c(Nc2ccc3[nH]cnc3c2)c1=O [Compound A78, 3-(1H-benzimidazol-5-ylamino)-4-(2,4,5-trifluoro-3-hydroxybenzylamino)cyclobut-3-ene-1,2-dione] | > 1000 nM
O=c1c(NCc2ccc3[nH]ccc3c2)c(Nc2ccc3[nH]cnc3c2)c1=O [Compound A79, 3-(1H-benzimidazol-5-ylamino)-4-[(1H-indol-5-ylmethyl)amino]cyclobut-3-ene-1,2-dione] | > 1000 nM
O=c1[nH]c2ccc(CNc3c(Nc4ccc5[nH]cnc5c4)c(=O)c3=O)cc2[nH]1 [Compound A80, 3-(1H-benzimidazol-5-ylamino)-4-[(2-oxo-2,3-dihydro-1H-benzimidazol-5-ylmethyl)amino]-cyclobut-3-ene-1,2-dione] | > 1000 nM
